Columns and labels:
Assay type in all cases: cell-based, human
[1] = system: HUVEC; assay: HUVEC retention under unidirectional fluid flow; conditions: 15 dyne/cm^2, thirty minutes; CS-1 p=0.1, fibronectin p=0.07
Method: (§1) In addition to the above, 75×38×1 mm glass microscope slides (Fisher Scientific Research, Pittsburgh, Pa.) were sterilized and coated overnight with human plasma fibronectin or CS-1 peptide at 5 μg/cm^2, or with PBS only. Slides were incubated for one hour at room temperature with a 0.01% (w/v) sterile-filtered BSA solution. HCAEC or HUVEC were seeded in basal medium on slides at 1.85×10^4 cells/cm^2 and permitted to adhere for eight hours under static conditions at 37° C. Fluid flow was performed using parallel plate flow chambers connected to fluid flow loops, as described in Pavalko et al., Fluid shear stress inhibits TNF-alpha-induced apoptosis in osteoblasts: a role for fluid shear stress-induced activation of PI3-kinase and inhibition of caspase-3. J Cell Phys 194, 194, 2002. Briefly, endothelial cell-seeded slides were secured within flow chambers and connected to fluid flow loops. All flows were performed in a 37° C. environment with serum-free culture medium that was continually bathed in a 5% CO2 atmosphere. […] Fluorescence micrographs were captured as described above. […] Nuclei were counted from five equally distributed visual fields per slide and pooled together for each substrate condition. Data was calculated as percent (%) cell retention, where % retention=[(average nuclei count)flow÷(average nuclei count)static]×100.

[2] = system: HCAEC; assay: HCAEC cell binding assay to immobilized fibronectin polypeptides (crystal violet); conditions: immobilized peptide, 8 h, on average
Method: Human coronary artery endothelial cell (HCAEC) and human umbilical vein endothelial cell (HUVEC) primary human cells were obtained (Cambrex Corporation, East Rutherford, N.J.) and maintained according to the manufacturer's instructions at 37° C. and 5% CO2. HCAEC were grown in microvascular endothelial cell medium (EBM-2 MV, Cambrex) supplemented with 5% fetal bovine serum, 0.1% human epidermal growth factor, 0.04% hydrocortisone, 0.1% vascular endothelial growth factor, 0.4% human fibroblast growth factor-B, 0.1% R^3-insulin-like growth factor-1, 0.1% ascorbic acid, and 0.1% gentamicin and amphotericin-B (GA-1000). HUVEC were grown in endothelial cell medium (EBM, Cambrex) supplemented with 2% fetal bovine serum, 0.4% bovine brain extract, 0.1% human epidermal growth factor, 0.1% hydrocortisone, and 0.1% gentamicin and amphotericin-B (GA-1000). HCAEC and HUVEC were subcultured at 90-95% confluence using 0.05% trypsin-EDTA (Invitrogen, Carlsbad, Calif.) and used for experiments between passages 3-7 (HUVEC) or 5-11 (HCAEC).
HCAEC or HUVEC cell binding assays to immobilized recombinant fibronectin polypeptides were performed in order to ascertain which polypeptide(s) maximally support(s) alpha-4 integrin-mediated cell adhesion. Connecting Segment-1 (SEQ ID NO:1), EILDV (SEQ ID NO:2), RGDS (SEQ ID NO:3) (positive control), RGES (SEQ ID NO:4) (negative control), and EILEVPST (SEQ ID NO:5) (negative control) and were immobilized by drying overnight at room temperature in Immobilizer™ Amino 96-well microplates (Nalge Nunc International, Rochester, N.Y.). RGES, EILDV, and EILEVPST were incubated at a molar equivalent concentration equal to 200 μg RGDS per well. CS-1 was incubated at 50 μg/well. On a molar basis per well, this equates to approximately twenty-fold less CS-1 relative to RGDS. […] Cells were manually counted, and their concentration adjusted to yield a total cell population of 5×10^4 cells/well. […] Spectrometric absorbance values were read at 562 nm at room temperature using a ThermoMax microplate reader (Molecular Devices Corporation, Sunnyvale, Calif.).

[3] = system: HCAEC; assay: HCAEC retention under unidirectional fluid flow; conditions: 15 dyne/cm^2, thirty minutes
Method: as §1

[4] = system: HCAEC; assay: HCAEC spreading on coated glass slides, static; conditions: 5 μg/cm^2 coating, two hours, p<0.0001
Method: 22×25×1 mm glass slides (Electron Microscopy Sciences, Hatfield, Pa.) were washed sequentially in 100% acetone, ethanol and HCl (2:1), and deionized and Milli-Q H2O, followed by autoclave sterilization. Slides were coated with one of the following PBS-solubilized extracellular matrix proteins at 5 μg/cm^2: (a) human type I collagen (Sigma), (b) human plasma fibronectin (Chemicon), or (c) CS-1 peptide (American Peptide Company). All coated slides were dried overnight at room temperature, rinsed with PBS, and blocked with a 0.01% (w/v) heat-inactivated BSA-solution at room temperature for one hour. HCAEC or HUVEC were seeded onto the slides in basal medium at 1×10^4 cells/cm^2 and permitted to attach and spread for two hours at 37° C. Cells were fixed with 4% (w/v) paraformaldehyde and co-stained for fluorescence microscopic analysis using Texas Red®-X phalloidin (Molecular Probes, Eugene, Oreg.) and DAPI (EMB Chemicals, Inc., San Diego, Calif.). Fluorescence micrographs were captured through a 10× objective on a Nikon Diaphot 200 inverted epifluorescence microscope (Nikon, Inc., Melville, N.Y.) using an Olympus DP70 digital camera (Olympus America, Inc., Melville, N.Y.). Image Tool software package version 3.0 (University of Texas Health Science Center, San Antonio, Tex.) was used to quantify endothelial cell surface area.

Substance: CS-1: full-length 25 amino acid polypeptide, first 25 amino acid sequence of the fibronectin type IIICS domain (DELPQLVTLPHPNLHGPEILDVPST; Homo sapien)
- HUVEC percent retention versus control substrate [1]: not statistically distinguishable from the control substrate
- more of the total HCAEC population adhered relative to RGES [2]: about 20%
- HCAEC percent retention versus non-ECM-coated control substrate ([3]; p<0.05): statistically greater
- HCAEC percent retention versus fibronectin substrate ([3]; p=0.9): not statistically different
- HCAEC spread area relative to the non-ECM-coated control substrate [4]: statistically significant increase
